In the assay the target is T1, amyloglucosidase (Aspergillus niger, UniProt P69328).
T1 construct: gene GLAA
In words: commercial glycosidase inhibition assay ([…] inhibition at […]; IC50 determined). The class given is biochemical.

SMILES strings stand for the structures. pIC50: −log10 of the molar value.

The text below walks through data of article PMC4685925, “Exploring architectures displaying multimeric presentations of a trihydroxypiperidine iminosugar” (Beilstein Journal of Organic Chemistry, 2015).

T1 sequence (P69328 25-640): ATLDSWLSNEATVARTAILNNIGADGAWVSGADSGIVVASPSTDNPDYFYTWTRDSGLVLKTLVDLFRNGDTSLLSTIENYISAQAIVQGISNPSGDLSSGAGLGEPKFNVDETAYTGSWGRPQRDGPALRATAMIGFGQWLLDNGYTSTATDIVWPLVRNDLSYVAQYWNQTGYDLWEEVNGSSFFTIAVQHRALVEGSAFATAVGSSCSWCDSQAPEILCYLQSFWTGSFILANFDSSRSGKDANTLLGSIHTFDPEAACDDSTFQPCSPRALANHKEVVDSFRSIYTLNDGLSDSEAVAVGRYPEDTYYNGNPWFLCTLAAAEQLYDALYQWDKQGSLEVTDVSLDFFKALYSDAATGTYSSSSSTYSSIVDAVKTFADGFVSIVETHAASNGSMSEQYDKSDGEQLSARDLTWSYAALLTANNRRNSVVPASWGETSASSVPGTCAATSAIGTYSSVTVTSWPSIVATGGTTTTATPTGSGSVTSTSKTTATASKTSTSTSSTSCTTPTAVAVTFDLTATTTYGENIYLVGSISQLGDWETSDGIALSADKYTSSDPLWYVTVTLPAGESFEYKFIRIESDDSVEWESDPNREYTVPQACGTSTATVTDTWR

With `NCc1cn(CCCN2C[C@@H](O)C(O)[C@H](O)C2)nn1` [compound 15, Deprotected monovalent iminosugar 15], the pIC50 (as a rule, the IC50 on a negative log10 scale, so that one unit is a factor of ten) is 2.96.
